Read-outs that look alike come from different tables or passages of the source.

One data set has as its system MCF-7. The experiment in a line: MTT cytotoxicity assay, MCF-7. To be noted: Homo sapiens. Format: cell-based, human. As for the experimental part:
(§1) The 96-well plate was incubated for 24 h before the MTT assay. […] Cells were cultured using DMEM supplemented with 10% foetal bovine serum, 10 µg/mL insulin and 1% penicillin–streptomycin. Reconstituted MTT (10%) was added and incubated for 2 h. Formazan crystals were dissolved by the MTT solubilizing solution after incubation. Absorbance was measured at a wavelength of 570 nm[28].
Background: Tetrazolium assays rely on reduction of a dye to a coloured formazan, in cell work by metabolically active cells.

A further data set concerns HCT-116. As to the kind of experiment: MTT cytotoxicity assay, HCT-116. It is filed as cell-based, human. To be noted: Homo sapiens. As for the experimental part:
as §1

Another data set relates to MDA-MB-231. The experiment in a line: MTT cytotoxicity assay, MDA-MB-231. Format: cell-based, human. The note with it: Homo sapiens. As for the experimental part:
as §1

The next data set concerns the target T1, EGFR (Homo sapiens, UniProt P00533).
T1 construct: purchased Invitrogen
As to the kind of experiment: EGFR kinase assay. It is filed as biochemical. The note with it: EGFR-TK inhibitory assay; means ± SE, three repeats. The procedure: An ATP solution and a kinase/peptide mixture were developed just before use. […] Then, […] of the prepared solution was added to each well. The plate was incubated for 1 h and determined by an ELISA Reader (PerkinElmer, USA). Curve fitting using Graph Pad Prism 5 was constructed. Each experiment was repeated three times. IC50 was represented as means ± SE.

A further data set concerns HepG-2. As to the kind of experiment: MTT cytotoxicity assay, HepG-2. Format: cell-based, human. To be noted: Homo sapiens. As for the experimental part:
as §1

The mark [1] stands for this setting: MCF7, MTT assay, mean of three experiments ± SE, read-out: IC50 MCF-7.
The mark [2] stands for this setting: HCT-116, MTT assay, mean of three experiments ± SE, read-out: IC50 HCT-116.
Setting [3] is: MDA-MB-231, MTT assay, mean of three experiments ± SE, read-out: IC50 MDA-MB-231.
The mark [4] stands for this setting: HepG2, MTT assay, mean of three experiments ± SE, read-out: IC50 HepG-2.

T1 sequence (P00533 25-1210): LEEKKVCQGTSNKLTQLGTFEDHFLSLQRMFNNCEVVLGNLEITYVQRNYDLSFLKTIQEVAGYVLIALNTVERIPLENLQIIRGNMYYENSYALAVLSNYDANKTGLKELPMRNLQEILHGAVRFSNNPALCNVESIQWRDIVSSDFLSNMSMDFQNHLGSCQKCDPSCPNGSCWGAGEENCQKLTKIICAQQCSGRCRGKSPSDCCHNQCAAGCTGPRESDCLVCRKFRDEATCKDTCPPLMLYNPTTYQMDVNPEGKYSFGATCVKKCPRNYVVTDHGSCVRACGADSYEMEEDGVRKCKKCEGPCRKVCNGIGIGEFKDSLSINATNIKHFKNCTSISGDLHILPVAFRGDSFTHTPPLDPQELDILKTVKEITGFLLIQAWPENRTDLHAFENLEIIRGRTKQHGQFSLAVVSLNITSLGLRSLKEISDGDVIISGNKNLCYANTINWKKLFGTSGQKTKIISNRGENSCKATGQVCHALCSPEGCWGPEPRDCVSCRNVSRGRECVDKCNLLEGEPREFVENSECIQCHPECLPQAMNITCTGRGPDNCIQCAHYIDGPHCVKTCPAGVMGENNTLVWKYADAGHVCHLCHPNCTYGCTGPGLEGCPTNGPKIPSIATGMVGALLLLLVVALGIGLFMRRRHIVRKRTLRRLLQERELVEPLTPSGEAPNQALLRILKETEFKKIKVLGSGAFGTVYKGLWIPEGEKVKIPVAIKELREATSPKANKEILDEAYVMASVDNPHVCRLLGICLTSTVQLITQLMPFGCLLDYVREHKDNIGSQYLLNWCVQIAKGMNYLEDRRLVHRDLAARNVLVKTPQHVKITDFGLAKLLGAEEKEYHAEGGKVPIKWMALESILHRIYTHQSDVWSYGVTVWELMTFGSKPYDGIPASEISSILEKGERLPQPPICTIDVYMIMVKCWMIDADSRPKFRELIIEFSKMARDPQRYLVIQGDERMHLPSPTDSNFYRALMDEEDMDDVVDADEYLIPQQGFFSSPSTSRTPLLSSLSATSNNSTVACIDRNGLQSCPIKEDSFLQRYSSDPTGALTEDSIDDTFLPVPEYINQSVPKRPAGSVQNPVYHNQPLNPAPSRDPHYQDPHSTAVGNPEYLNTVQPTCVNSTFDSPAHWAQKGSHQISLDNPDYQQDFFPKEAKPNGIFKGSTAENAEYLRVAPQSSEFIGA

What is called IC50 is the concentration at which inhibition is half-maximal. What is called melting point is the temperature of the solid-liquid transition. Consider `CC(Nc1nc2ccccc2c(=O)n1N)C(O)c1ccccc1` (centres unmarked) [Compound 11, 3-amino-2-(1-hydroxy-1-phenylpropan-2-ylamino)quinazolin-4(3H)-one], for which the melting point was determined as 147.5 °C. For the same molecule, the IC50 in the data set on MCF-7 (setting [1]) was found to be 39.42 ± 0.3 µM. Also, the IC50 with HCT-116 (setting [2]) amounted to 44.15 ± 0.22 µM. In the data set on MDA-MB-231 (setting [3]), the IC50 was found to be 16.39 ± 0.06 µM. Further, on EGFR, 3.87 ± 0.11 µM corresponded to half-maximal inhibition (IC50). In addition, the 50% inhibitory concentration (IC50) in the data set on HepG-2 (setting [4]) was 33.65 ± 0.26 µM.
Regarding `Nn1c(O)nc2ccccc2c1=O` [Compound 12, 3-Amino-2-hydroxyquinazolin-4(3H)-one], the IC50 with MCF-7 (setting [1]) worked out at 66.3 ± 0.72 µM; with HCT-116 (setting [2]), 50.75 ± 0.29 µM; with MDA-MB-231 (setting [3]) it was 57.78 ± 0.43 µM; on EGFR, 7.39 ± 0.28 µM; in the data set with HepG-2 (setting [4]) it was 20.5 ± 0.31 µM.
Take `CCOc1nc2ccccc2c(=O)n1N` [Compound 13, 3-amino-2-ethoxyquinazolin-4(3H)-one]: the IC50 in the data set on MCF-7 (setting [1]) was more than 100 µM; in the data set with HCT-116 (setting [2]) it was more than 100 µM; with MDA-MB-231 (setting [3]) it was 81.43 ± 0.27 µM; against EGFR it was 8.35 ± 0.32 µM; with HepG-2 (setting [4]) it was more than 100 µM.
Consider `O=c1c2ccccc2nc2[nH]n3c(=O)c4ccccc4nc3[nH]n12` [Compound 14, [1,2,4,5]tetrazino[3,2-b:6,5-b']diquinazoline-8,16(6H,14H)-dione], for which the melting point amounted to 294.1 °C. For the same molecule, in the data set on MCF-7 (setting [1]), the IC50 was found to be 30.12 ± 0.19 µM. In addition, in the data set with HCT-116 (setting [2]), the IC50 amounted to 29.32 ± 0.16 µM. Besides, the IC50 in the data set with MDA-MB-231 (setting [3]) is 26.55 ± 0.04 µM. On EGFR, half-maximal inhibition (IC50) required 1.39 ± 0.27 µM. Further, the IC50 with HepG-2 (setting [4]) worked out at 41.25 ± 0.23 µM.
For the molecule `CC1C(c2ccccc2)Oc2nc3ccccc3c(=O)n21` (centres unmarked) [Compound 15, 3-Methyl-2-phenyl-2H-oxazolo[2,3-b]quinazolin-5(3H)-one], the IC50 in the data set on MCF-7 (setting [1]) was 19.67 ± 0.13 µM; in the data set on HCT-116 (setting [2]), 26.51 ± 0.17 µM; in the data set with MDA-MB-231 (setting [3]) it was 2.41 ± 0.03 µM; at EGFR it was 1.09 ± 0.12 µM; in the data set on HepG-2 (setting [4]), 28.5 ± 0.4 µM.
For the molecule `CC1C(c2ccccc2)Oc2nc3ccccc3c(=O)n2C(C)C(c2ccccc2)Oc2nc3ccccc3c(=O)n21` (centres unmarked) [Compound 17, 8,18-dimethyl-7,17-diphenyl-7,8,17,18-tetrahydro-[1,6,3,8]dioxadiazecino[2,3-b:7,8-b']diquinazoline-10,20-dione], the concentration for half-maximal inhibition (IC50) in the data set with MCF-7 (setting [1]) was found to be 20.1 ± 0.27 µM; with HCT-116 (setting [2]), 18.4 ± 0.2 µM; with MDA-MB-231 (setting [3]) it was 5.45 ± 0.06 µM; on EGFR, 1.02 ± 0.05 µM; in the data set with HepG-2 (setting [4]) it was 24.3 ± 0.18 µM.
`CC(Nc1nc2ccccc2c(=O)n1C(C)C(O)c1ccccc1)C(O)c1ccccc1` (centres unmarked) [Compound 18, 3-(1-hydroxy-1-phenylpropan-2-yl)-2-(1-hydroxy-1-phenylpropan-2-ylamino)quinazolin-4(3H)-one]: the IC50 in the data set with MCF-7 (setting [1]) was determined as 62.59 ± 0.18 µM; with HCT-116 (setting [2]), 44.9 ± 0.52 µM; with MDA-MB-231 (setting [3]) it was 62.94 ± 0.1 µM; against EGFR, 0.99 ± 0.04 µM; with HepG-2 (setting [4]) it was 50 ± 0.13 µM.
For the molecule `C#Cc1cccc(Nc2ncnc3cc(OCCOC)c(OCCOC)cc23)c1` [Erlotinib, reference compound], the IC50 in the data set with MCF-7 (MCF7, read-out: IC50 MCF-7) was found to be 4.48 ± 0.02 µM; in the data set on HCT-116 (HCT-116, read-out: IC50 HCT-116), 2.78 ± 0.04 µM; with MDA-MB-231 (MDA-MB-231, read-out: IC50 MDA-MB-231), 3.73 ± 0.01 µM; with HepG-2 (HepG2, read-out: IC50 HepG-2) it was 3.04 ± 0.2 µM.

Values taken from article PMC7781899, “Synthesis of some quinazolinones inspired from the natural alkaloid L-norephedrine as EGFR inhibitors and radiosensitizers” (Journal of Enzyme Inhibition and Medicinal Chemistry, 2020).
